Measurements: paper PMC9820316, “Novel Arylpiperazine Derivatives of Salicylamide with α1-Adrenolytic Properties Showed Antiarrhythmic and Hypotensive Properties in Rats” (International Journal of Molecular Sciences, 2022)

Assays:
[1] = biological target: α2-adrenergic receptors; test: α2-adrenoceptor radioligand binding assay ([3H]-clonidine, rat cortex); settings: rat cortex tissue, mean ± SEM, n.a. = did not bind at 10^−5 M
Method: The α1- and α2-adrenoceptor radioligand binding assays were performed on the rat cerebral cortex using previously described methods. […] The brains were homogenized using the ULTRA-TURRAX homogenizer in 10 mL of an ice-cold 50 mM Tris-HCl buffer (pH 7.6). The homogenates were centrifuged at 20,000× g for 20 min (0–4 °C). Subsequently, the cell pellet was resuspended in the Tris–HCl buffer and centrifuged again. Radioligand binding assays were carried out in plates (MultiScreen/Millipore). The final incubation mixture, with a volume of 300 μL, consisted of 240 μL of the tissue suspension, 30 μL of the radioligand solution, and 30 μL of the buffer containing 7–8 concentrations of the studied compounds. In order to measure the unspecific binding, 10 μM phentolamine (for [^3H]-prazosin) or 10 μM clonidine (for [^3H]-clonidine) were utilized. The incubation was completed by rapid filtration through Whatman GF/C filters using a vacuum manifold (Millipore). The filters were then washed twice with the assay buffer and placed in scintillation vials with a liquid scintillation cocktail. Radioactivity was measured in a WALLAC 1409 DSA liquid scintillation counter (Perkin Elmer, USA). All the assays were performed in duplicates, and the inhibitory constants (Ki) were calculated.

[2] = test system: aconitine-induced arrhythmia model in rats; test: Prophylactic antiarrhythmic activity in aconitine-induced arrhythmia; format: in vivo, rat; settings: 5 mg/kg iv 15 min before aconitine 20 μg/kg; number of animals with event
Method: The animals were anesthetized with thiopental (75 mg/kg ip). Depending on the model, either adrenaline, aconitine, or calcium chloride was used as an arrhythmogen. Adrenaline and aconitine were administered iv at a dose of 20 µg/kg, whereas calcium chloride was administered at a dose of 140 mg/kg to induce heart rhythm disturbances. The tested compounds were injected iv 15 min before the arrhythmogen. Aspel ASCARD apparatus (standard II lead, with the tape speed 50 mm/s and voltage calibration 1 mV = 1 cm) was used for ECG measurements. […] The ED50 was calculated using the method of Litchfield and Wilcoxon.

Row | SMILES | Adrenergic Receptors—pKi α2 [1] | Blocks [2] | Bradycardia [2] | Extrasystoles [2] | Fibrillations [2] | Mortality [2]
1 | Cl.NC(=O)c1ccccc1OCCCCN1CCN(c2cccc(Cl)c2)CC1 [JJGW01, 2-{4-[4-(3-chlorophenyl)piperazin-1-ylo]butoxy}benzamide hydrochloride] | 6.13 ± 0.02 | 6/6 | 6/6 | 5/6 | 6/6 | 6/6
2 | Cl.NC(=O)c1ccccc1OCCCCCN1CCN(c2cccc(Cl)c2)CC1 [JJGW02, 2-{5-[4-(3-chlorophenyl)piperazin-1-ylo]pentoxy}benzamide hydrochloride] | 6.20 ± 0.02 | 6/6 | 6/6 | 6/6 | 6/6 | 6/6
3 | Cl.NC(=O)c1ccccc1OCCCCCCN1CCN(c2cccc(Cl)c2)CC1 [JJGW03, 2-{6-[4-(3-chlorophenyl)piperazin-1-ylo]hexoxy}benzamide hydrochloride] | 5.76 ± 0.02 | 6/6 | 6/6 | 6/6 | 6/6 | 6/6
4 | COc1ccccc1N1CCN(Cc2cccc(COc3ccccc3C(N)=O)c2)CC1.Cl [JJGW11, 2-[(3-{[4-(2-metoxyphenyl)piperazin-1-ylo]methyl}phenyl)metoxy}benzamide hydrochloride] |  | 6/6 | 6/6 | 5/6 | 4/6 | 6/6
5 | COc1ccccc1N1CCN(Cc2ccc(COc3ccccc3C(N)=O)cc2)CC1.Cl [JJGW12, 2-[(4-{[4-(2-metoxyphenyl)piperazin-1-ylo]methyl}phenyl)metoxy}benzamide hydrochloride] | 6.11 ± 0.01 | 5/6 | 6/6 | 6/6 | 5/6 | 6/6
